Results published in PubChem BioAssay AID330 (DTP/NCI, 2004).
Several values for one entry are separate records, joined by “and”; a condition that tells them apart may be missing. Identical values can stand only once. Inconclusive results and toxic doses are left out.

Test system: P388 leukemia ip, CD2F1 mice, survival T/C
Test: NCI In Vivo Anticancer Drug Screen. Data for tumor model P388 Leukemia (intraperitoneal) in CD2F1 (CDF1) mice
Details: endpoint: median survival time, higher = longer survival
Outline: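 Mice carrying the transplanted tumor received test compound or vehicle. Survival was recorded in each group, and the value is the treated-group measurement divided by that of the vehicle-treated control group.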

[1] = dose: 50.0 mg/kg/injection, schedule: Q01DX005 (ip), vehicle: saline with Tween-80
[2] = dose: 100.0 mg/kg/injection, schedule: Q01DX005 (ip), vehicle: saline with Tween-80
[3] = dose: 200.0 mg/kg/injection, schedule: Q01DX005 (ip), vehicle: saline with Tween-80
[4] = dose: 100.0 mg/kg/injection, schedule: Q04DX003 (ip), vehicle: saline with Tween-80
[5] = dose: 200.0 mg/kg/injection, schedule: Q04DX003 (ip), vehicle: saline with Tween-80
[6] = dose: 400.0 mg/kg/injection, schedule: Q04DX003 (ip), vehicle: saline with Tween-80
[7] = dose: 50.0 mg/kg/injection, schedule: Q01DX009 (ip), vehicle: saline with Tween-80
[8] = dose: 100.0 mg/kg/injection, schedule: Q01DX009 (ip), vehicle: saline with Tween-80
[9] = dose: 100.0 mg/kg/injection, schedule: Q01DX009 (ip), vehicle: saline
[10] = dose: 12.5 mg/kg/injection, schedule: Q01DX009 (ip), vehicle: saline with Tween-80
[11] = dose: 25.0 mg/kg/injection, schedule: Q01DX009 (ip), vehicle: saline with Tween-80
[12] = dose: 100.0 mg/kg/injection, schedule: Q01DX009 (ip), vehicle: suspension in saline

CCC(=O)O[C@H]1CC[C@H]2[C@@H]3CC[C@H]4CCCC[C@]4(C)[C@H]3CC[C@]12C
T/C (dose: 100.0 mg/kg/injection, schedule: Q01DX009 (ip), vehicle: Klucel (hydroxypropylcellulose) (HPC)): 90 % of control | T/C (dose: 200.0 mg/kg/injection, schedule: Q01DX009 (ip), vehicle: Klucel (hydroxypropylcellulose) (HPC)): 95 % of control | T/C (dose: 400.0 mg/kg/injection, schedule: Q01DX009 (ip), vehicle: Klucel (hydroxypropylcellulose) (HPC)): 105 % of control

CCOc1ccc(C(CC)c2cc3c(cc2OC)OCO3)cc1 (configuration not stated)
T/C (dose: 60.0 mg/kg/injection, schedule: Q01DX005 (ip), vehicle: saline + Tween-80 + alcohol): 100 % of control | T/C (dose: 120.0 mg/kg/injection, schedule: Q01DX005 (ip), vehicle: saline + Tween-80 + alcohol): 100 % of control | T/C (dose: 240.0 mg/kg/injection, schedule: Q01DX005 (ip), vehicle: saline + Tween-80 + alcohol): 100 % of control

O=C1OC(c2ccc(Cl)c(Cl)c2)C(=O)C1=O (configuration not stated)
T/C (dose: 3.75 mg/kg/injection, schedule: Q01DX005 (ip), vehicle: saline with Tween-80): 86 % of control | T/C (dose: 7.5 mg/kg/injection, schedule: Q01DX005 (ip), vehicle: saline with Tween-80): 91 % of control | T/C (dose: 15.0 mg/kg/injection, schedule: Q01DX005 (ip), vehicle: Klucel + Tween-80): 92 % of control | T/C (dose: 15.0 mg/kg/injection, schedule: Q01DX005 (ip), vehicle: saline with Tween-80): 102 % of control

Cc1nc2ccccc2c(=O)n1/N=C/c1ccc(Cl)cc1Cl
T/C [1]: 92 % of control | T/C [2]: 100 % of control

C=CCNC(=O)C(NC(=O)OCCCC)NC(=O)OCCCC
T/C [1]: 95 % of control | T/C [2]: 87 % of control | T/C [3]: 87 % of control

CCCCC(CC)COC(OCC(CC)CCCC)C(OCC(CC)CCCC)OCC(CC)CCCC (configuration not stated)
T/C [4]: 100 % of control | T/C [5]: 100 % of control | T/C [6]: 100 % of control

C=C1C(=O)C2=CC1CCC(=O)C1(C)C(OC(C)=O)CC(OC(C)=O)C(C)(C)C1CC2O (configuration not stated)
T/C (dose: 17.5 mg/kg/injection, schedule: Q01DX005 (ip), vehicle: Klucel (hydroxypropylcellulose) (HPC)): 108 % of control | T/C (dose: 35.0 mg/kg/injection, schedule: Q01DX005 (ip), vehicle: Klucel (hydroxypropylcellulose) (HPC)): 109 % of control | T/C (dose: 70.0 mg/kg/injection, schedule: Q01DX005 (ip), vehicle: Klucel (hydroxypropylcellulose) (HPC)): 111 % of control

CC(=O)Oc1ccccc1C#CC(=O)O
T/C [7]: 96 % of control | T/C [8]: 90 % of control | T/C (dose: 200.0 mg/kg/injection, schedule: Q01DX009 (ip), vehicle: saline with Tween-80): 94 % of control

COc1ccc(/C(C)=N/OC(=O)c2c(-c3ccccc3Cl)noc2C)cc1CN1CCOCC1
T/C (dose: 50.0 mg/kg/injection, schedule: Q01DX009 (ip), vehicle: saline): 94 % of control | T/C [9]: 97 % of control | T/C (dose: 200.0 mg/kg/injection, schedule: Q01DX009 (ip), vehicle: saline): 97 % of control

CN(C)N=Nc1ccc(-c2ccccc2)cc1
T/C [10]: 100 % of control and 104 % of control | T/C [11]: 102 % of control and 115 % of control | T/C [7]: 101 % of control and 110 % of control | T/C [8]: 102 % of control and 117 % of control

N#C/C(N)=C(/N)C#N
T/C [10]: 100 % of control and 107 % of control | T/C [11]: 102 % of control and 111 % of control | T/C [7]: 104 % of control and 117 % of control and 124 % of control

N#C/C(=C\Nc1ccccn1)C(=O)c1ccccc1
T/C (dose: 60.0 mg/kg/injection, schedule: Q01DX005 (ip), vehicle: saline with Tween-80): 91 % of control | T/C (dose: 120.0 mg/kg/injection, schedule: Q01DX005 (ip), vehicle: saline with Tween-80): 91 % of control | T/C (dose: 240.0 mg/kg/injection, schedule: Q01DX005 (ip), vehicle: saline with Tween-80): 91 % of control

COc1ccc(C[n+]2cc([O-])on2)cc1
T/C (dose: 6.25 mg/kg/injection, schedule: Q01DX009 (ip), vehicle: saline with Tween-80): 100 % of control | T/C [10]: 100 % of control | T/C [11]: 100 % of control and 104 % of control and 95 % of control | T/C [7]: 122 % of control | T/C (dose: 66.0 mg/kg/injection, schedule: Q01DX009 (ip), vehicle: saline with Tween-80): 118 % of control and 122 % of control

CC(=O)Oc1c(C)c(O)c(C(C)=O)c2c1C1(C)C(=O)C(C(C)=O)=C(O)C=C1O2 (configuration not stated)
T/C (dose: 6.25 mg/kg/injection, schedule: Q01DX009 (ip), vehicle: gum acacia): 104 % of control and 107 % of control | T/C (dose: 12.5 mg/kg/injection, schedule: Q01DX009 (ip), vehicle: gum acacia): 101 % of control and 106 % of control | T/C (dose: 25.0 mg/kg/injection, schedule: Q01DX009 (ip), vehicle: gum acacia): 101 % of control and 110 % of control | T/C (dose: 50.0 mg/kg/injection, schedule: Q01DX009 (ip), vehicle: gum acacia): 100 % of control and 104 % of control | T/C (dose: 100.0 mg/kg/injection, schedule: Q01DX009 (ip), vehicle: gum acacia): 108 % of control and 110 % of control | T/C (dose: 200.0 mg/kg/injection, schedule: Q01DX009 (ip), vehicle: gum acacia): 113 % of control and 119 % of control

COc1cccc(C(=O)c2ccncc2)c1OC
T/C (dose: 12.5 mg/kg/injection, schedule: Q01DX009 (ip), vehicle: water): 100 % of control | T/C (dose: 25.0 mg/kg/injection, schedule: Q01DX009 (ip), vehicle: water): 100 % of control | T/C (dose: 50.0 mg/kg/injection, schedule: Q01DX009 (ip), vehicle: water): 103 % of control | T/C (dose: 100.0 mg/kg/injection, schedule: Q01DX009 (ip), vehicle: water): 104 % of control | T/C (dose: 200.0 mg/kg/injection, schedule: Q01DX009 (ip), vehicle: water): 100 % of control

O=Cc1nnc(-c2ccccc2)o1
T/C (dose: 12.5 mg/kg/injection, schedule: Q01DX009 (ip), vehicle: DMSO): 90 % of control | T/C (dose: 25.0 mg/kg/injection, schedule: Q01DX009 (ip), vehicle: DMSO): 98 % of control | T/C (dose: 50.0 mg/kg/injection, schedule: Q01DX009 (ip), vehicle: DMSO): 93 % of control

O=C(O)c1c[nH]c2cc(OCCOc3ccc(Br)cc3)ccc2c1=O
T/C [4]: 87 % of control | T/C [5]: 93 % of control | T/C [6]: 91 % of control

O=[N+]([O-])c1ccc(Cl)c2c([N+](=O)[O-])cccc12
T/C [7]: 102 % of control | T/C [8]: 110 % of control

CCN(CC)CCOC(C)(C)C#CC(C)(C)O
T/C [1]: 100 % of control | T/C [2]: 99 % of control | T/C [3]: 99 % of control

Cc1nn(CC(=O)O)c(=O)c(C#N)c1-c1ccccc1
T/C (dose: 62.5 mg/kg/injection, schedule: Q04DX002 (ip), vehicle: other): 116 % of control | T/C (dose: 125.0 mg/kg/injection, schedule: Q04DX002 (ip), vehicle: other): 102 % of control | T/C (dose: 250.0 mg/kg/injection, schedule: Q04DX002 (ip), vehicle: other): 115 % of control | T/C (dose: 500.0 mg/kg/injection, schedule: Q04DX002 (ip), vehicle: other): 109 % of control

CC(C(O)c1cc2c(c3ccccc13)CCCC2)N1CCOCC1 (configuration not stated)
T/C [12]: 104 % of control | T/C (dose: 200.0 mg/kg/injection, schedule: Q01DX009 (ip), vehicle: suspension in saline): 99 % of control | T/C (dose: 400.0 mg/kg/injection, schedule: Q01DX009 (ip), vehicle: suspension in saline): 104 % of control

CCCn1c(CC)nc2c(cnn2C)c1=O
T/C (dose: 50.0 mg/kg/injection, schedule: Q01DX005 (ip), vehicle: Klucel (hydroxypropylcellulose) (HPC)): 101 % of control | T/C (dose: 100.0 mg/kg/injection, schedule: Q01DX005 (ip), vehicle: Klucel (hydroxypropylcellulose) (HPC)): 101 % of control | T/C (dose: 200.0 mg/kg/injection, schedule: Q01DX005 (ip), vehicle: Klucel (hydroxypropylcellulose) (HPC)): 101 % of control

CC[C@@]1(O)C[C@H]2CN(CCc3c([nH]c4ccccc34)[C@@](C(=O)OC)(c3cc4c(cc3OC)N[C@H]3[C@@](O)(C(=O)OC)[C@H](OC(C)=O)[C@]5(CC)C=CCN6CC[C@]43[C@@H]65)C2)C1
T/C (dose: 16.0 mg/kg/injection, schedule: Q01DX001 (ip), vehicle: water): 153 % of control and 164 % of control

COC(=O)OC(C#N)c1cccc([N+](=O)[O-])c1 (configuration not stated)
T/C (dose: 25.0 mg/kg/injection, schedule: Q01DX009 (ip), vehicle: suspension in saline): 101 % of control | T/C (dose: 50.0 mg/kg/injection, schedule: Q01DX009 (ip), vehicle: suspension in saline): 98 % of control | T/C [9]: 94 % of control | T/C [12]: 104 % of control

CC(=O)Nc1ccc(S(=O)(=O)NCCSS(=O)(=O)O)cc1
T/C [1]: 101 % of control | T/C [2]: 109 % of control | T/C [3]: 109 % of control

CC1CN1P(=O)(N1CC1C)N1CC1C (configuration not stated)
T/C (dose: 3.13 mg/kg/injection, schedule: Q04DX003 (ip), vehicle: saline): 104 % of control | T/C (dose: 6.25 mg/kg/injection, schedule: Q04DX003 (ip), vehicle: saline): 109 % of control | T/C (dose: 12.5 mg/kg/injection, schedule: Q04DX003 (ip), vehicle: saline): 109 % of control | T/C (dose: 50.0 mg/kg/injection, schedule: Q04DX003 (ip), vehicle: saline): 222 % of control | T/C (dose: 100.0 mg/kg/injection, schedule: Q04DX003 (ip), vehicle: saline): 86 % of control
